Test results reported in patent US6602487B1, “Methods and tests for producing and for inhibiting coronary artery vasospasms” (Dimera Incorporated, priority 1997, dated 2003).
“And” between values parts separate entries of the source, which are not always exact repeats. Equal entries are not always repeated.

Columns and labels:
[1] = test system: coronary arteries; assay: Drug-induced (S+U) coronary vasospasm in ovariectomized monkeys with E2 plus P or MPA implants; type: in vivo, rhesus monkeys (Macaca mulatta)
Description: Twelve rhesus monkeys (Macaca mulatta), aged 8 to 16 years and with weights of 5-7 kg, were ovariectomized at least 3 months prior to beginning of the study and selected randomly for one of two treatments. After documenting the lack of cardiovascular disease or previous exposure to atherogenic diet and after a normal physical examination (including blood chemistry), monkeys received subdermal sylastic implants containing 200 mg of E2. Two weeks later, sylastic implants containing either 400 mg of P or 400 mg of MPA were additionally implanted. All steroids were purchased from Steraloids (Wilton, N.H.). Both estrogen and progestin implants, providing sustained release steroids, remained in place through the catheterization study 6 weeks after beginning the study. Venous blood sample (5 ml) were collected just prior to beginning the study at weekly intervals for measurements of serum levels of E2, P, and MPA. Target levels of 80-160 pg/ml for E2, 4000-8000 pg/ml for P, and 400-800 pg/ml for MPA were based on levels that are effective by reproductive system indices in women and monkeys. Levels were measured in blood serum at catheterization by specific radio-immunoassays.
Angiography was carried out under isoflurane (0.75-1.25%) general anesthesia with 70% O2 and 30% N2O, and body temperature supported with a heating pad. After ketamine sedation (10 mg/kg) and endotracheal tube placement, both femoral arteries were cannulated for simultaneous measurement of systemic blood pressure and coronary catheterization. Intravenous anticoagulation with 1000 units of heparin and fluid replacement with 75-150 ml of lactated Ringer's solution, and if needed 10-50 ml of dextran, to reach a minimum control diastolic blood pressure of 60 mm Hg.
Coronary arteries (left anterior descending or left circumflex) of the monkeys were catheterized and agents injected as described above in Example 1.
Statistical analysis was carried out by Student's t-test (non-paired) or Chi-square, with the p<0.05 level accepted as significant.
All monkeys were treated with estradiol 17β via sylastic implants for the entire treatment period. P or MPA was added during the last 2 weeks as a second sylastic implant, to simulate the luteal phase (P) or hormone replacement therapy (MPA). All steroid implants were left in place, including during angiography. Steroid measurements were made by RIA on serum samples taken just before angiography. Indicates significant differences between P and MPA at p 0.05 (N=6 for each group).

[2] = test system: coronary artery vascular muscle cells (VMC); assay: Subcellular Ca2+ and PKC localization and contraction of coronary VMC stimulated with serotonin plus U46619; type: cell-based, rhesus monkeys; details: VMC from treated monkeys, 10 μM serotonin plus 100 nM U46619
Text: Single VMCs from the left anterior descending, circumflex, and right coronary arteries of adult rhesus monkeys were isolated and studied both as freshly dispersed and as primary cultures. The short-term primary cultured cells (never passaged) maintain the characteristics of the source tissue for 2 3 weeks, including contraction, relaxation, receptors, and membrane electrical properties. VMCs were dissociated with collagenase and protease enzymes in a potassium glutamate solution (KG) that prevent loading with Na^+, Ca^2+, or Cl^− and results in a high proportion of viable, contracting cells (Self, D. A., et al., J. Vasc. Res. 31:359-366 (1994); Rusch., N. J., et al., Physiology and Pathophysiology of the Heart, 999-1010 (1995)). The cells prepared for culture were seeded at low density in cardiovascular culture solution for mammals, fifth generation (CV5M) on glass coverslips to facilitate selection of individual cells. VMC were used for experiments 7-14 days after attaching to coverslips.
Freshly dispersed or primary cultured VMCs on glass coverslips were placed in a chamber of laminar flow design and observed with a Zeiss Plan Neofluar 25×/0.80 water immersion objective. Ionic solution for mammals version 2 (ISM2) was continuously pumped through the chamber (at 1 ml/minute) to provide continuous equilibration and washout of drugs. After a 15 minutes equilibration period, VMC were loaded for 15 minutes at room temperature with 3 μM fluo 3 (Molecular Probes, Inc.) for sensing Ca^2− and for 10 minutes with […] hypericin (LC Laboratories) for reporting PKC. Individual VMC were stimulated by adding 20 μl of 10 μM serotonin plus 100 nM U46619 over the individual cell. After 15 seconds under no-flow conditions, continuous flow of ISM2 was reinstated and a chamber volume of approximately 300 μl was maintained. Fluorescent images were taken at 1, 2, 5, 10, 15, 20 and 30 minutes after stimulation for Ca^2+ and at 3, 4, 9, 16, 21 and 31 minutes for PKC to evaluate subcellular distribution of these signals, and to determine VMC contraction.
ISM2 contains (in mM): 100 NaCl, 4 NaHCO3, 0.5 NaH2PO4, 4.7 KCl, 1.8 CaCl2, 0.41 […], 50 HEPES (pH 7.37), and 5.5 dextrose, KG solution consists of (in mM); 140 K-glutamate, 16 NaHCO3, 0.5 NaH2PO4, 30 HEPES, and 16.5 dextrose at pH 7.3. CVSM consists of. 4.0 mM L-glutamine, 10 μg/ml ciprofloxacin (Miles Pentex/Bayer Corporation), 50 mM HEPES (pH 7.3), and 16 mM NaHCO3 dissolved in 85% MEM-Earle's'salts and 15% horse serum. Phenol red, known to have estrogenic activity, was omitted from all solutions.
As discussed above, the monkeys were implanted with subdermal sylastic tubing containing estrogen (E) progesterone (P) or MPA. The first step in each of the three groups was to implant sylastic tubing containing E. Two weeks later, either P or MPA were additionally implanted and maintained for another 4 weeks (6 weeks total). In the withdrawal (W) group, the E tube was withdrawn, and no tubes were implanted for the last 4 weeks.

[3] = minimum, 5-20 minutes after IC S + U

Structure (SMILES): CC(=O)[C@H]1CC[C@H]2[C@@H]3CCC4=CC(=O)CC[C@]4(C)[C@H]3CC[C@]12C [P, progesterone]
- diameter in dilator response to low dose ACh ([1]; 0.18 μg ACh IC): 1.20±0.25 mm
- Vasospasms (incidence) ([1]; S+U IC challenges, E2 implant plus P or MPA implant, N=6 per group): 0 of 6 and 0/6
- reduction of minimum (φ) from controls after S+U ([1]; S+U stimulation): 67%
- Control DBP in mm Hg ([1]; before S + U): 60 ± 5 mm Hg
- Control Heart rate in bpm ([1]; before S + U): 130 ± 24 bpm
- S + U (φ) minimum ([1]; minimum diameter 3 to 5 minutes after IC S + U): 0.37±0.02 mm
- S + U stim DBP in min Hg [1, 3]: 30 ± 12 min Hg
- S + U stim SBP in mm Hg [1, 3]: 51 ± 18 mm Hg
- S + U stim heart rate in bpm [1, 3]: 66 ± 34 bpm
- Control (φ) in mm ([1]; proximal LAD or left circumflex diameter under control conditions, E2+P or E2+MPA group): 1.14±0.21 mm
- whole cell Ca2+ (fluo 3) fluorescence after stimulation ([2]; FIG. 3): increased significantly over control only at 1 minute
- peripheral-to-central Ca2+ ratio after stimulation ([2]; FIG. 4): too small to be significant
- PKC signal after stimulation ([2]; FIG. 5): failed to change PKC loci or intensity significantly from control values
- peripheral-to-central PKC ratio after stimulation ([2]; FIG. 6): never significantly different from control
- VMC contractions (cell width) after stimulation ([2]; FIG. 7): significantly different from 0-min controls only at 3 and 4 minutes
